From patent US6020521A, “Macrolide LHRH antagonists” (Abbott Laboratories, priority 1998, dated 2000)
pKi: −log10 of the molar value.

These compounds were tested against T1, LHRH rat pituitary receptor (Rattus norvegicus, UniProt P30969) (assay: LHRH rat pituitary receptor binding (pKI)). Details: receptor binding affinity, negative logarithm of the equilibrium dissociation constants.
T1 construct: from tissue; host or cells: rat pituitary
T1 sequence (P30969 1-327): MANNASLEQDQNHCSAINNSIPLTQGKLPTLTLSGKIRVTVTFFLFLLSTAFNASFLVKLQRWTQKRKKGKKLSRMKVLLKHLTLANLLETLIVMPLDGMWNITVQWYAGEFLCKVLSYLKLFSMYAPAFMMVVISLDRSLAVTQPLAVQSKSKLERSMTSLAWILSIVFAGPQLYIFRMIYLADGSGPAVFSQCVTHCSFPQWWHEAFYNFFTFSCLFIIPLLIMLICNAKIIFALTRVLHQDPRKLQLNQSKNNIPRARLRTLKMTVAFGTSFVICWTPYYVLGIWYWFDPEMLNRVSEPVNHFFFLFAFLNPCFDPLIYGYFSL
Procedure: Representative compounds of the present invention were evaluated in in vitro tests for LHRH rat pituitary receptor binding (pKI) and for LH inhibition from rat pituitary cells for antagonist potency (pA2). The tests employed the methods detailed in F. Haviv, et al. J. Med. Chem., 32: 2340-2344 (1989). The receptor binding affinity (pKI) is the negative logarithm of the equilibrium dissociation constants.

Row | Compound | pKi | p KI
1 | CC[C@H]1OC(=O)[C@H](C)[C@@H](OC(=O)N2C(=O)OC[C@@H]2C)[C@H](C)[C@@H](O[C@@H]2O[C@H](C)C[C@H](N(C)C)[C@H]2O)[C@](C)(OC)C[C@@H](C)C(=O)[C@H](C)[C@H]2N(CCc3ccc(Cl)c(Cl)c3)C(=O)O[C@]12C [Example 11, 11-Deoxy-11-[carboxy(3,4-dichlorophenethyl)amino]-3-O-[4-(S)-methyl-oxazolidin-2-one]carbamoyl-5-O-desosaminyl-6-O-methyl-erythronolide A 11,12-(cyclic carbamate)] | 8.50 | –
2 | CCCN(C)[C@H]1C[C@@H](C)O[C@@H](O[C@@H]2[C@@H](C)[C@H](OC(=O)N3C(=O)OC[C@@H]3C)[C@@H](C)C(=O)O[C@H](CC)[C@@]3(C)OC(=O)N(CCc4ccc(Cl)c(Cl)c4)[C@@H]3[C@@H](C)C(=O)[C@H](C)C[C@@]2(C)OC)[C@@H]1O [Example 16, 11-Deoxy-11-[carboxy(3,4-dichlorophenethyl)amino]-3-O-[4-(S)-methyl-oxazolidin-2-one]carbamoyl-5-O-(3'-N-desmethyl-3'-N-n-propyl)desosaminyl-6-O-methyl-erythronolide A 11,12-(cyclic carbamate)] | 8.40 | –
3 | CC[C@H]1OC(=O)[C@H](C)[C@@H](OC(=O)N2COC[C@H]2C)[C@H](C)[C@@H](O[C@@H]2O[C@H](C)C[C@H](N(C)C(C)C)[C@H]2O)[C@](C)(OC)C[C@@H](C)C(=O)[C@H](C)[C@H]2N(CCc3ccc(Cl)cc3)C(=O)O[C@]12C [Example 8, 11-Deoxy-11-[carboxy(4-chlorophenethyl)amino]-5-O-(3'-N-desmethyl-3'-N-isopropyl)desosaminyl-3-O-[4-(R)-methyl-oxazolidine]carbamoyl-6-O-methyl-erythronolide A 11,12-(cyclic carbamate)] | 7.93 | –
4 | CC[C@H]1OC(=O)[C@H](C)[C@@H](OC(=O)N2C(=O)OC[C@@H]2C)[C@H](C)[C@@H](O[C@@H]2O[C@H](C)C[C@H](N(C)CC3CC3)[C@H]2O)[C@](C)(OC)C[C@@H](C)C(=O)[C@H](C)[C@H]2N(CCc3ccc(Cl)cc3)C(=O)O[C@]12C [Example 23, 11-Deoxy-11-[carboxy(4-chlorophenethyl)amino]-3-O-[4-(S)-methyl-oxazolidin-2-one]carbamoyl-5-O-(3'-N-desmethyl-3'-N-cyclopropylmethyl)desosaminyl-6-O-methyl-erythronolide A 11,12-(cyclic carbamate)] | 8.84 | –
5 | CC[C@H]1OC(=O)[C@H](C)[C@@H](OC(=O)N2C(=O)OC[C@@H]2C)[C@H](C)[C@@H](O[C@@H]2O[C@H](C)C[C@H](N(C)C3CCCCC3)[C@H]2O)[C@](C)(OC)C[C@@H](C)C(=O)[C@H](C)[C@H]2N(CCc3ccc(Cl)c(Cl)c3)C(=O)O[C@]12C [Example 15, 11-Deoxy-11-[carboxy(3,4-dichlorophenethyl)amino]-3-O-[4-(S)-methyl-oxazolidin-2-one]carbamoyl-5-O-(3'-N-desmethyl-3'-N-cyclohexyl)desosaminyl-6-O-methyl-erythronolide A 11,12-(cyclic carbamate)] | 8.41 | –
6 | CC[C@H]1OC(=O)[C@H](C)[C@@H](OC(=O)N2C(=O)OC[C@@H]2C)[C@H](C)[C@@H](O[C@@H]2O[C@H](C)C[C@H](N(C)CC3CCC3)[C@H]2O)[C@](C)(OC)C[C@@H](C)C(=O)[C@H](C)[C@H]2N(CCc3ccc(Cl)c(Cl)c3)C(=O)O[C@]12C [Example 18, 11-Deoxy-11-[carboxy(3,4-dichlorophenethyl)amino]-3-O-[4-(S)-methyl-oxazolidin-2-one]carbamoyl-5-O-(3'-N-desmethyl-3'-N-cyclobutylmethyl)desosaminyl-6-O-methyl-erythronolide A 11,12-(cyclic carbamate)] | 9.03 | –
7 | CC[C@H]1OC(=O)[C@H](C)[C@@H](OC(=O)C2CCOC2)[C@H](C)[C@@H](O[C@@H]2O[C@H](C)C[C@H](N(C)C(C)C)[C@H]2O)[C@](C)(OC)C[C@@H](C)C(=O)[C@H](C)[C@H]2N(CCc3ccc(Cl)cc3)C(=O)O[C@]12C (stereo partly drawn) [Example 9, 11-Deoxy-11-[carboxy(4-chlorophenethyl)amino]-5-O-(3'-N-desmethyl-3'-N-isopropyl)desosaminyl-3-O-(tetrahydro-3-furoyl)-6-O-methyl-erythronolide A 11 12-(cyclic carbamate)] | – | 7.85

Continued, values first:

Row | pKi | p KI | Compound
8 | 9.98 | – | CC[C@H]1OC(=O)[C@H](C)[C@@H](OC(=O)N2C(=O)OC[C@@H]2C)[C@H](C)[C@@H](O[C@@H]2O[C@H](C)C[C@H](N(C)C3CCC3)[C@H]2O)[C@](C)(OC)C[C@@H](C)C(=O)[C@H](C)[C@H]2N(CCc3ccc(F)cc3)C(=O)O[C@]12C [Example 29, 11-Deoxy-11-[carboxy(4-fluorophenethyl)amino]-3-O-[4-(S)-methyl-oxazolidin-2-one]carbamoyl-5-O-(3'-N-desmethyl-3'-N-cyclobutyl)desosaminyl-6-O-methyl-erythronolide A 11,12-(cyclic carbamate)]
9 | 8.43 | – | CC[C@H]1OC(=O)[C@H](C)[C@@H](OC(=O)N2C(=O)OC[C@@H]2C)[C@H](C)[C@@H](O[C@@H]2O[C@H](C)C[C@H](N(C)CC3CC3)[C@H]2O)[C@](C)(OC)C[C@@H](C)C(=O)[C@H](C)[C@H]2N(CCc3ccc(Cl)c(F)c3)C(=O)O[C@]12C [Example 36, 11-Deoxy-11-[carboxy(4-chloro-3-fluorophenethyl)amino]-3-O-[4-(S)-methyl-oxazolidin-2-one]carbamoyl-5-O-(3'-N-desmethyl-3'-N-cyclopropylmethyl)desosaminyl-6-O-methyl-erythronolide A 11,12-(cyclic carbamate)]
10 | 8.09 | – | CC[C@H]1OC(=O)[C@H](C)[C@@H](OC(=O)N2C(=O)SC[C@@H]2C)[C@H](C)[C@@H](O[C@@H]2O[C@H](C)C[C@H](N(C)CC3CC3)[C@H]2O)[C@](C)(OC)C[C@@H](C)C(=O)[C@H](C)[C@H]2N(CCc3ccc(Cl)c(Cl)c3)C(=O)O[C@]12C [Example 40, 11-Deoxy-11-[carboxy(3,4-dichlorophenethyl)amino]-3-O-[4-(S)-methyl-thiazolidin-2-one]carbamoyl-5-O-(3'-N-desmethyl-3'-N-cyclopropylmethyl)desosaminyl-6-O-methyl-erythronolide A 11,12-(cyclic carbamate)]
11 | 8.27 | – | CC[C@H]1OC(=O)[C@H](C)[C@@H](OC(=O)N2C(=O)OC[C@H]2C)[C@H](C)[C@@H](O[C@@H]2O[C@H](C)C[C@H](N(C)CC3CC3)[C@H]2O)[C@](C)(OC)C[C@@H](C)C(=O)[C@H](C)[C@H]2N(CCc3ccc(Cl)c(Cl)c3)C(=O)O[C@]12C [Example 37, 11-Deoxy-11-[carboxy(3,4-dichlorophenethyl)amino]-3-O-[4-(R)-methyl-oxazolidin-2-one]carbamoyl-5-O-(3'-N-desmethyl-3'-N-cyclopropylmethyl)desosaminyl-6-O-methyl-erythronolide A 11,12-(cyclic carbamate)]
12 | 8.50 | – | CC[C@H]1OC(=O)[C@H](C)[C@@H](OC(=O)N2C(=O)OC[C@@H]2C)[C@H](C)[C@@H](O[C@@H]2O[C@H](C)C[C@H](N(CC3CC3)CC3CC3)[C@H]2O)[C@](C)(OC)C[C@@H](C)C(=O)[C@H](C)[C@H]2N(CCc3ccc(Cl)c(F)c3)C(=O)O[C@]12C [Example 44, 11-Deoxy-11-[carboxy(4-chloro-3-fluorophenethyl)amino]-3-O-[4-(S)-methyl-oxazolidin-2-one]carbamoyl-5-O-(3'-bis-N-desmethyl-3'-bis-N-cyclopropylmethyl)desosaminyl-6-O-methyl-erythronolide A 11,12-(cyclic carbamate)]
13 | 9.18 | – | CC[C@H]1OC(=O)[C@H](C)[C@@H](OC(=O)N2C(=O)OC[C@@H]2C)[C@H](C)[C@@H](O[C@@H]2O[C@H](C)C[C@H](N(CC3CC3)CC3CC3)[C@H]2O)[C@](C)(OC)C[C@@H](C)C(=O)[C@H](C)[C@H]2N(CCc3ccc(Cl)c(Cl)c3)C(=O)O[C@]12C [Example 42, 11-Deoxy-11-[carboxy(3,4-dichlorophenethyl)amino]-3-O-[4-(S)-methyl-oxazolidin-2-one]carbamoyl-5-O-(3'-bis-N-desmethyl-3'-bis-N-cyclopropylmethyl)desosaminyl-6-O-methyl-erythronolide A 11,12-(cyclic carbamate)]
14 | 9.92 | – | CC[C@H]1OC(=O)[C@H](C)[C@@H](OC(=O)N2C(=O)OC[C@@H]2C)[C@H](C)[C@@H](O[C@@H]2O[C@H](C)C[C@H](N(CC3CC3)C(C)C)[C@H]2O)[C@](C)(OC)C[C@@H](C)C(=O)[C@H](C)[C@H]2N(CCc3ccc(F)c(Cl)c3)C(=O)O[C@]12C [Example 56, 11-Deoxy-11-[carboxy(3-chloro-4-fluorophenethyl)amino]-3-O-[4-(S)-methyl-oxazolidin-2-one]carbamoyl-5-O-(3'-bis-N-desmethyl-3'-N-cyclopropylmethyl-3'-N-isopropyl)desosaminyl-6-O-methyl-erythronolide A 11,12-(cyclic carbamate)]
15 | 9.16 | – | CC[C@H]1OC(=O)[C@H](C)[C@@H](OC(=O)N2C(=O)OC[C@@H]2C)[C@H](C)[C@@H](O[C@@H]2O[C@H](C)C[C@H](N(CC3CC3)CC3CC3)[C@H]2O)[C@](C)(OC)C[C@@H](C)C(=O)[C@H](C)[C@H]2N(CCc3ccc(F)c(Cl)c3)C(=O)O[C@]12C [Example 43, 11-Deoxy-11-[carboxy(3-chloro-4-fluorophenethyl)amino]-3-O-[4-(S)-methyl-oxazolidin-2-one]carbamoyl-5-O-(3'-bis-N-desmethyl-3'-bis-N-cyclopropylmethyl)desosaminyl-6-O-methyl-erythronolide A 11,12-(cyclic carbamate)]
